From ChEMBL document CHEMBL2203033, “Design and synthesis of novel DFG-out RAF/vascular endothelial growth factor receptor 2 (VEGFR2) inhibitors: 3. Evaluation of 5-amino-linked thiazolo[5,4-d]pyrimidine and thiazolo[5,4-b]pyridine derivatives” (Bioorg Med Chem, 2012) come the findings set out here.

For orientation: clearance means a measure of how efficiently the substance is removed, as volume per time. Higher therefore signals efficient removal. As usually defined, the MRT is a mean duration of stay, worked out from the concentration-time curve. As a reminder, the AUC(0-t) is the area under the concentration-time curve up to a stated or last time point. Broadly, the bioavailability is dose-corrected exposure relative to a reference, in per cent. Read a high bioavailability as much systemic uptake. A word on the Cmax: it is the highest concentration seen after dosing. What is called IC50 is the concentration needed to halve the response being measured.

Active and inactive are the calls of the source. The calls are words filed in the database; no cut-off is given here.

The nature of data set [1]: Volume of distribution at steady state in rat at 1 mg/kg, iv. It counts as ADME, organism-based. The arrangement: dose 1 mg/kg, route intravenous. To be noted: in vivo, read-out: Vdss.
Data set [2] in a line: Total clearance in rat at 1 mg/kg, iv. Particulars: in vivo. Details: dose 1 mg/kg, route intravenous. Type of data set: ADME, organism-based.
Another data set relates to HT-29. The data set is described as follows: Antitumor activity against human HT-29 cells xenografted in nude rat assessed as tumor regression at 25 mg/kg, po qd for 2 weeks. It counts as functional.
The nature of data set [3]: Thermodynamic solubility of the compound in Japanese pharmacopoeia 2nd fluid at pH 6.8 presence of 20 mmol/L of bile acid. Type of data set: physicochemical. Particulars: read-out: Therm_solubility.
Data set [4] is described as follows: Mean residence time in rat at 25 mg/kg, po. To be noted: in vivo. Details: dose 25 mg/kg, route oral. It counts as ADME, organism-based.
Data set [5] in a line: AUC (0 to 24 hrs) in rat at 1 mg/kg, iv. Type of data set: ADME, organism-based. Details: time < 24 hr, dose 1 mg/kg, route intravenous. Particulars: plasma.
Data set [6] in a line: Oral bioavailability in rat at 25 mg/kg. Type of data set: ADME, organism-based. To be noted: in vivo.
A short description of data set [7]: Cmax in rat at 25 mg/kg, po. The arrangement: dose 25 mg/kg, route oral. Type of data set: ADME, organism-based. Particulars: in vivo.
Data set [8] is described as follows: Mean residence time in rat at 1 mg/kg, iv. To be noted: in vivo. Details: dose 1 mg/kg, route intravenous. Type of data set: ADME, organism-based.
The test system of data set [9] is Rattus norvegicus. The data set is described as follows: Toxicity in human HT-29 cells xenografted nude rat at 25 mg/kg, po qd for 2 weeks. It counts as organism-based. Details: dose 25 mg/kg, route oral. To be noted: in vivo, 336 h.
A short description of data set [10]: AUC (0 to 24 hrs) in rat at 25 mg/kg, po. Type of data set: ADME, organism-based. The arrangement: time < 24 hr, dose 25 mg/kg, route oral. Particulars: plasma.
The nature of data set [11]: Intrinsic clearance in human liver microsomes at 1 umol/L after 20 mins in presence of NADPH. Particulars: read-out: CLH. It counts as ADME, Microsome. (Microsomes from liver hold many membrane-bound enzymes, among them those of drug oxidation.)
The nature of data set [12]: Intrinsic clearance in mouse liver microsomes at 1 umol/L after 20 mins in presence of NADPH. Type of data set: ADME, Microsome. To be noted: read-out: CLH.
The target of data set [13] is T1, Serine/threonine-protein kinase B-raf (Homo sapiens, UniProt P15056, V600E). The data set is described as follows: Inhibition of BRAF V600E mutant in human HT-29 cells assessed as reduction of […] phosphorylation. Type of data set: cell-based.
T1 sequence (P15056 2-766 V600E limits assumed): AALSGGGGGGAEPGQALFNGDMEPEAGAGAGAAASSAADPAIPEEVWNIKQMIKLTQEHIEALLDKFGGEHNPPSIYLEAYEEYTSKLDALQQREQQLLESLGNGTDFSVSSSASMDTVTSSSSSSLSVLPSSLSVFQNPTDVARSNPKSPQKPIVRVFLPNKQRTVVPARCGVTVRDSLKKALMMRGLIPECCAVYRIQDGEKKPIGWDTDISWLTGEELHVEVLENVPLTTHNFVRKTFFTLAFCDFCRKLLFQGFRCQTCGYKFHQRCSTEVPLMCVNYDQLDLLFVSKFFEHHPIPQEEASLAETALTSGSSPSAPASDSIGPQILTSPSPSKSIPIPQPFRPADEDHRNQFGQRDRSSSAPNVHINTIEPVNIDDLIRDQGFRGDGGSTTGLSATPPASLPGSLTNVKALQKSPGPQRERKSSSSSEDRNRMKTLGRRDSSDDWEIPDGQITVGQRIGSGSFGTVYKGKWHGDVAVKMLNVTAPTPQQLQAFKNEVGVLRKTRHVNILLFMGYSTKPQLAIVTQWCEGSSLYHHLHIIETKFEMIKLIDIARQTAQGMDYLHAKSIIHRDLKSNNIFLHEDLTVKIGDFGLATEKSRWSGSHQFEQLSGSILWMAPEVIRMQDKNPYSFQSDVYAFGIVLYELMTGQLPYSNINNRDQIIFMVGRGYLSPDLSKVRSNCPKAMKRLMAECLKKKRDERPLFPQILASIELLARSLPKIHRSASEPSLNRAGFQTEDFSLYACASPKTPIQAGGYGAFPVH
The target in data set [14] is Vascular endothelial growth factor receptor 2 (Homo sapiens, UniProt P35968). The data set is described as follows: Inhibition of VEGFR2.
Sequence of Vascular endothelial growth factor receptor 2 (P35968 whole entry): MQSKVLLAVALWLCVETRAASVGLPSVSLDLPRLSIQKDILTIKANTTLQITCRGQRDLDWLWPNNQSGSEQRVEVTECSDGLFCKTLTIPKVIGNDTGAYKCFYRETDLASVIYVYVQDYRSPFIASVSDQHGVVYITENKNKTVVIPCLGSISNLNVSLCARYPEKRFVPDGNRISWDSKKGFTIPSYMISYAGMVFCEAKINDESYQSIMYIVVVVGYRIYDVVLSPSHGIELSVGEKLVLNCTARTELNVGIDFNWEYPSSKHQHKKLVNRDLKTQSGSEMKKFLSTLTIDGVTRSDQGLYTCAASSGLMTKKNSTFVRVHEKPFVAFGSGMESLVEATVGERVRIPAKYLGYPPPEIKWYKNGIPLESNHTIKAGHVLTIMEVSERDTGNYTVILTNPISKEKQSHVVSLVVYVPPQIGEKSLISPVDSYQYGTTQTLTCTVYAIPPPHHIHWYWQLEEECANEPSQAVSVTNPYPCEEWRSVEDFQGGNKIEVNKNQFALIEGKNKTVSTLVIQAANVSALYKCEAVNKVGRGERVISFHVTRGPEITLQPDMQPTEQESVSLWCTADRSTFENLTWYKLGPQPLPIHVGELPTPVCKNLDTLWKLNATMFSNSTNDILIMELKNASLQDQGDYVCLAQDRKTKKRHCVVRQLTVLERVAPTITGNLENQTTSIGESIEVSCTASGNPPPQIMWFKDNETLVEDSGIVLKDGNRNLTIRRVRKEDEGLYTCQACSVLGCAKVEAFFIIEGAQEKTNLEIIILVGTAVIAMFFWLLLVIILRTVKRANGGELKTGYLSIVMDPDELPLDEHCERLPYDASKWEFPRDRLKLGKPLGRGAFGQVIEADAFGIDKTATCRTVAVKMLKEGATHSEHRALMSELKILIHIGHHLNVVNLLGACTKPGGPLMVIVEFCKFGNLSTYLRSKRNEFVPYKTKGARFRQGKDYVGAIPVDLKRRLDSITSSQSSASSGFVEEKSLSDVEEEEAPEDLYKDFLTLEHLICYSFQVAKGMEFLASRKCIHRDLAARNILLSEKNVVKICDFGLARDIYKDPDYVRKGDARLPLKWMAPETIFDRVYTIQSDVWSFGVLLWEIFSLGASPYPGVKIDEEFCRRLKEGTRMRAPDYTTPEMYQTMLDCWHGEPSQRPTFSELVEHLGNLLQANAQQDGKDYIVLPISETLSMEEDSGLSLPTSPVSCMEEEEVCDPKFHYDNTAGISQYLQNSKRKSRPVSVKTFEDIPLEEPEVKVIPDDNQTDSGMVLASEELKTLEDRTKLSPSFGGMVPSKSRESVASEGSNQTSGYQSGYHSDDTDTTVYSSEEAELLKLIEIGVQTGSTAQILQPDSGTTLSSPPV
For data set [15], the target named is T1, Serine/threonine-protein kinase B-raf. As to the kind of experiment: Inhibition of recombinant BRAF V600E mutant using […] and [gamma-32P]ATP as substrate after 30 mins by scintillation counting.
Data set [16] has as its system Rattus norvegicus. The data set is described as follows: Inhibition of BRAF in human HT-29 cells xenografted nude rat tumor assessed as reduction of ERK phosphorylation at 25 mg/kg, po. It counts as functional, organism-based. Details: dose 25 mg/kg.
Data set [17] has as its target Mitogen-activated protein kinase 8 (Homo sapiens, UniProt P45983). As to the kind of experiment: Inhibition of JNK1.
Data set [18] has as its target Serine/threonine-protein kinase Chk1 (Homo sapiens, UniProt O14757). The data set is described as follows: Inhibition of CHK1.
Data set [19] deals with Dual specificity mitogen-activated protein kinase kinase 1 (Homo sapiens, UniProt Q02750).
Sequence of Dual specificity mitogen-activated protein kinase kinase 1 (Q02750 whole entry): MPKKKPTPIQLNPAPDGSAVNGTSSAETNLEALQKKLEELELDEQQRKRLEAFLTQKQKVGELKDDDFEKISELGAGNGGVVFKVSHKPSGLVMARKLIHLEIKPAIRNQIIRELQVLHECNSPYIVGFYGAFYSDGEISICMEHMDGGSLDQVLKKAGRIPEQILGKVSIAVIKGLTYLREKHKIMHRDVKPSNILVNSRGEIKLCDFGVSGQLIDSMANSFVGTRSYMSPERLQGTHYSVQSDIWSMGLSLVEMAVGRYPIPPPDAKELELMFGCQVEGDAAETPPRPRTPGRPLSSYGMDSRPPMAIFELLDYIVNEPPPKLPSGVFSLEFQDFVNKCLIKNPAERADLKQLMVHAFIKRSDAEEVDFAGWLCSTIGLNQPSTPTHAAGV
Data set [20] addresses Cyclin-dependent kinase 2 (Homo sapiens, UniProt P24941). As to the kind of experiment: Inhibition of CDK2.
The target of another data set is Angiopoietin-1 receptor (Homo sapiens, UniProt Q02763). As to the kind of experiment: Inhibition of TIE2.
The target of data set [21] is Cyclin-dependent kinase 1 (Homo sapiens, UniProt P06493). The data set is described as follows: Inhibition of CDK1.
Sequence of Cyclin-dependent kinase 1 (P06493 whole entry): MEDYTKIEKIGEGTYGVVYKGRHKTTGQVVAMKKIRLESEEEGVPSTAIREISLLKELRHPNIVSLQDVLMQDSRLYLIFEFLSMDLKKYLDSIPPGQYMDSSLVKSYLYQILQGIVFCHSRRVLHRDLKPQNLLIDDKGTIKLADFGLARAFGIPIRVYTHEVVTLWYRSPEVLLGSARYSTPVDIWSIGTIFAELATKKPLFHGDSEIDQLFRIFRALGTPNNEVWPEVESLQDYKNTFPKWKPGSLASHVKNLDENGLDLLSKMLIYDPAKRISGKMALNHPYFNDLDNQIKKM
Data set [22] has as its target Protein kinase C theta type (Homo sapiens, UniProt Q04759). As to the kind of experiment: Inhibition of PKCtheta.
Data set [23] addresses Mast/stem cell growth factor receptor Kit (Homo sapiens, UniProt P10721). As to the kind of experiment: Inhibition of c-Kit.
In data set [24] the target is Mitogen-activated protein kinase 3 (Homo sapiens, UniProt P27361). The data set is described as follows: Inhibition of ERK1.
Sequence of Mitogen-activated protein kinase 3 (P27361 whole entry): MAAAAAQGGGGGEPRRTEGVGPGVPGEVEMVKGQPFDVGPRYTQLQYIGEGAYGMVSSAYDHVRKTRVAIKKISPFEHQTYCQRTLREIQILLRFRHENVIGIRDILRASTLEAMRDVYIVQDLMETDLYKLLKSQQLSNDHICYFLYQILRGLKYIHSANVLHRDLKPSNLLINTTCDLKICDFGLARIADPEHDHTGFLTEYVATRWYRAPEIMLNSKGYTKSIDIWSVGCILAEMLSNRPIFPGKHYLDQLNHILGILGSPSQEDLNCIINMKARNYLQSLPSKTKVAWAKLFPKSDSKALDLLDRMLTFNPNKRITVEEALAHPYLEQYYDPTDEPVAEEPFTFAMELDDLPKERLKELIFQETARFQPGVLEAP
Data set [25] concerns the target Platelet-derived growth factor receptor beta (Homo sapiens, UniProt P09619). The data set is described as follows: Inhibition of PDGFRbeta.
The target of another data set is Insulin receptor (Homo sapiens, UniProt P06213). As to the kind of experiment: Inhibition of IR.
In data set [26] the target is Fibroblast growth factor receptor 3 (Homo sapiens, UniProt P22607). As to the kind of experiment: Inhibition of FGFR3.
For data set [27], the target named is Platelet-derived growth factor receptor alpha (Homo sapiens, UniProt P16234). The data set is described as follows: Inhibition of PDGFRalpha.
In data set [28] the target is Hepatocyte growth factor receptor (Homo sapiens, UniProt P08581).
Data set [29] addresses RAF proto-oncogene serine/threonine-protein kinase (Homo sapiens, UniProt P04049). As to the kind of experiment: Inhibition of c-RAF.
The target of data set [30] is Inhibitor of nuclear factor kappa-B kinase subunit beta (Homo sapiens, UniProt O14920). The data set is described as follows: Inhibition of IKKbeta.
The target in data set [31] is Proto-oncogene tyrosine-protein kinase Src (Homo sapiens, UniProt P12931).
The target of data set [32] is Mitogen-activated protein kinase kinase kinase 1 (Homo sapiens, UniProt Q13233). The data set is described as follows: Inhibition of MEKK1.
For another data set, the target named is Aurora kinase B (Homo sapiens, UniProt Q96GD4). The data set is described as follows: Inhibition of aurora B.
The target in data set [33] is Glycogen synthase kinase-3 beta (Homo sapiens, UniProt P49841). As to the kind of experiment: Inhibition of GSK3beta.
Sequence of Glycogen synthase kinase-3 beta (P49841 whole entry): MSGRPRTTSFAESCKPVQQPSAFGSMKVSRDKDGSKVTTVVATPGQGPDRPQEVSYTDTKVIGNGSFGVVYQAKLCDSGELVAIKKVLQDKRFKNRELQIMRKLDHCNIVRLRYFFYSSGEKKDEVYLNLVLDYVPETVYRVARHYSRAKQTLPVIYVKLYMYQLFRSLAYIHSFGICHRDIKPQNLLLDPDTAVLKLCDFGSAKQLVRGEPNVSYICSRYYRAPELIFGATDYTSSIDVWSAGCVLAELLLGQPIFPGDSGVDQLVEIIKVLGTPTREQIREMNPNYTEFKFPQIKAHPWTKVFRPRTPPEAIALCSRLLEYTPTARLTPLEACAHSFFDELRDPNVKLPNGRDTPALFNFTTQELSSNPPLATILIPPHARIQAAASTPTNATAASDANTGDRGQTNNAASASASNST
Data set [34] has as its target Receptor tyrosine-protein kinase erbB-2 (Homo sapiens, UniProt P04626). The data set is described as follows: Inhibition of HER2.

Sequence of Receptor tyrosine-protein kinase erbB-2 (P04626 whole entry): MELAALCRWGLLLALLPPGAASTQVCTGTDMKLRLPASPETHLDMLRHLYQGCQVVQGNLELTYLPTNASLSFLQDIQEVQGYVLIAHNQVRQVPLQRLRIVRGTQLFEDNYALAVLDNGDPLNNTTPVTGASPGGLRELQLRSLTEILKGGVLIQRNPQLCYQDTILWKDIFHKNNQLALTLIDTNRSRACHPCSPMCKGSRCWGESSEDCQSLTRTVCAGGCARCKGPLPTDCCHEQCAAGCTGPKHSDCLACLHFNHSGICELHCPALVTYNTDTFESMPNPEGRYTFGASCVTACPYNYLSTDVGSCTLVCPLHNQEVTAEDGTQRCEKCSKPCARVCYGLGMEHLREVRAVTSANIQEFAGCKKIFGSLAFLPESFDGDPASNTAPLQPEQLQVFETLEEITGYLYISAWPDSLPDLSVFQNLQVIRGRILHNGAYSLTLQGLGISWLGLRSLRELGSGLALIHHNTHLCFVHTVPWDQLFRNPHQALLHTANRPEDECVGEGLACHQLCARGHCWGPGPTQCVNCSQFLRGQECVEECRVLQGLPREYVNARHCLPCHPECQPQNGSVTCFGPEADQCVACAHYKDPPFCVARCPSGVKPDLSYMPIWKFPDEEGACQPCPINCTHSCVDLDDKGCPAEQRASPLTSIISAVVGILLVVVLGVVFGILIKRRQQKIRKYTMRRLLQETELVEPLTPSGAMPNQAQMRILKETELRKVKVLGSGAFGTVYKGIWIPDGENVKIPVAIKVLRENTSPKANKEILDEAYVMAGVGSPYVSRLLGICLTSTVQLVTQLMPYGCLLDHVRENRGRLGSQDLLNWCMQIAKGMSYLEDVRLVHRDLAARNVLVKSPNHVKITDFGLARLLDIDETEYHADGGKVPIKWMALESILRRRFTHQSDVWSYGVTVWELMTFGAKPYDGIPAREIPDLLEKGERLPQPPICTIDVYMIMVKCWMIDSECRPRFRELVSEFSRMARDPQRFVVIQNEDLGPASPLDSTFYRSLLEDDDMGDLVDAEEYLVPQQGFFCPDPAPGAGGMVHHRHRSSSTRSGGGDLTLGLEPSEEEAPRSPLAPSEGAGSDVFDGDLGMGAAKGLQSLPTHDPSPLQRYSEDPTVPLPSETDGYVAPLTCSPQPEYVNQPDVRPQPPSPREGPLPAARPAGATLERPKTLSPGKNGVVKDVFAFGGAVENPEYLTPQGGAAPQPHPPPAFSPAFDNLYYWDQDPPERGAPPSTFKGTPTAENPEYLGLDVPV

Consider `CN(c1ccc(F)c(NC(=O)c2cccc(OC(C)(C)C#N)c2Cl)c1)c1ccc2nc(NC(=O)C3CC3)sc2n1.O.O=S(=O)(O)c1ccccc1`, for which the Vd in data set [1] stood at 5.52 L/kg. In [2], this compound had a clearance of 29.2 mL/min/kg. In addition, in the data set with HT-29, the T/C is listed as -70%. The solubility thermodynamic in [3] worked out at 37 µg/mL. Besides, the mean residence time MRT in data set [4] was 5.26 h; in data set [8] it was 3.13 h. Further, the AUC(0-t) at 24 h in data set [5] is 600 ng·h/mL; in [10] it was 5770 ng·h/mL. In addition, the bioavailability in [6] is 38.4%. In addition, in [7], the highest level (Cmax) was 660 ng/mL. For the same compound, the Activity entry in the data set on Rattus norvegicus [9] is listed as “Non-toxic”.
For `CC(=O)Nc1nc2ccc(N(C)c3ccc(F)c(NC(=O)c4cccc(OC(C)(C)C#N)c4)c3)nc2s1`, the results for the microsomal CLint at 1 µM in data set [11] and in data set [12] were 22 µL/min/mg and 25 µL/min/mg, respectively. Moreover, the IC50 in data set [13] came to 30 nM.
Regarding `CC(=O)Nc1nc2cnc(Nc3cc(NC(=O)c4cccc(OC(C)(C)C#N)c4)ccc3C)nc2s1`, the IC50 in [13] is 88 nM; in data set [14] it was 510 nM; in [15] it was 73 nM.
Regarding `CC(=O)Nc1nc2cnc(Nc3cc(NC(=O)c4cccc(CC(C)(C)C#N)c4)ccc3C)nc2s1`, the microsomal CLint at 1 µM in data set [11] worked out at 56 µL/min/mg. In addition, the values for the IC50 in data set [13], in [14] and in data set [15] were 150 nM, 300 nM and 100 nM, respectively.
On to `CN(c1ccc(F)c(NC(=O)c2cccc(OC(C)(C)C#N)c2Cl)c1)c1ccc2nc(NC(=O)C3CC3)sc2n1.O=S(=O)(O)O`, for which the solubility thermodynamic in data set [3] was found to be 35 µg/mL.
On to `CC(=O)Nc1nc2ccc(N(C)c3ccc(F)c(NC(=O)c4cccc(OC(C)(C)C#N)c4Cl)c3)nc2s1`, for which the microsomal CLint at 1 µM in [11] is 45 µL/min/mg; in [12], 55 µL/min/mg. Also, the IC50 in [13] is 22 nM.
With `CN(c1ccc(F)c(NC(=O)c2cccc(OC(C)(C)C#N)c2Cl)c1)c1ccc2nc(NC(=O)C3CC3)sc2n1` [listing 1 of 2 here], the inhibition entry in the data set on Rattus norvegicus [16] is “Active”.
For `CC(=O)Nc1nc2cnc(Nc3cc(NC(=O)c4cccc(C5(C#N)CC5)c4Cl)ccc3C)nc2s1`, the microsomal CLint at 1 µM in data set [11] worked out at 73 µL/min/mg. Further, the IC50 in data set [13] turned out to be 120 nM; in data set [14], 340 nM; in data set [15] it was 91 nM.
For `CC(=O)Nc1nc2cnc(Nc3cc(NC(=O)c4cccc(CCC#N)c4)ccc3C)nc2s1`, the microsomal CLint at 1 µM in [11] is 35 µL/min/mg. The IC50 is > 500 nM in [13], 410 nM in data set [14] and 51 nM in data set [15].
For `CC(C)(C#N)Oc1cccc(C(=O)Nc2cc(Nc3ccc4nc(NC(=O)C5CC5)sc4n3)ccc2F)c1Cl`, the IC50 turned out to be 87 nM in [13], 64 nM in data set [14] and 15 nM in data set [15]. For the same compound, the solubility thermodynamic in data set [3] amounted to 0.91 µg/mL.
For the compound `CN(c1ccc(F)c(NC(=O)c2cccc(OC(C)(C)C#N)c2Cl)c1)c1ccc2nc(NC(=O)C3CC3)sc2n1` [listing 2 of 2 here], the IC50 in [17] is > 10 µM; in [18], > 10 µM; in data set [19], 1000 nM; in [20], > 10 µM; on Angiopoietin-1 receptor, 840 nM; in data set [21] it was 3.7 µM. For the same compound, the IC50 in data set [22] was > 10 µM; in data set [23] it was 430 nM; in [24], > 10 µM; in [25], 91 nM; on Insulin receptor, > 10 µM; in [26], 86 nM. For the same compound, the IC50 is 43 nM in [27]; > 10 µM in data set [28]; 23 nM in [29]; 8.1 µM in [30]; 130 nM in data set [31]; > 10 µM in data set [32]. Besides, the IC50 on Aurora kinase B is 4 µM; in [33], > 10 µM; in data set [34] it was 1200 nM. Moreover, the microsomal CLint at 1 µM was 25 µL/min/mg in [11] and 32 µL/min/mg in data set [12]. Moreover, in data set [3], the solubility thermodynamic stood at 18 µg/mL.
Turning to `CN(c1ccc(F)c(NC(=O)c2cccc(OC(C)(C)C#N)c2Cl)c1)c1ccc2nc(NC(=O)C3CC3)sc2n1.Cl`, the solubility thermodynamic in data set [3] came to 31 µg/mL.
